From patent publication US4511724A, “5-(Pyrrol-2-oyl)-1,2-dihydro-3H-pyrrolo [1,2-a]pyrrole derivatives as anti-inflammatory and analgesic agents” (Merck & Co., Inc., priority 1982, dated 1985)

How the values were obtained:
in vivo = test: in vivo; design: species or system Rats (Sprague-Dawley); details: rat, po
Description: The GHLF test is conducted according to the following procedure:
Rats (Sprague-Dawley, Males, 120-180 gm) were fasted overnight and dosed orally with drug suspended in 0.5% methylcellulose. The drug concentration was adjusted so that each animal received 1.0 ml/100 gm body weight. Four hours later the animals were killed by asphixiation in carbon dioxide, the stomachs removed, cut open and everted. The mucosal lining was washed and examined under 3X magnification. The lesions are indentified as perforations of the gastric mucosa many of which perforate right through the wall of the stomach.
The results are expressed in two ways, the average number of lesions per stomach, and the number of animals in the group showing at least one lesion.

[1] = tested on: phenylbenzquinone (PBQ) writhing; test: Inhibition of phenylbenzquinone (PBQ) writhing in mice; type: in vivo, mice (C.B.L., CD1); details: Mus musculus, oral, PBQ 2.0 mg/kg i.p.
Description: b. Inhibition of phenylbenzquinone (PBQ) writhing in mice:
Groups of 10 male mice (C.B.L., CD1, 18-22 grams) were food deprived overnight prior to the experiments. Test substances, suspended or dissolved in 1% methylcellulose, were administered orally (0.1 ml/10 grams body weight) at various times prior to administration of PBQ (2.0 mg/kg i.p.). The mice were placed in individual boxes and observed for 10 minutes (5 to 15 minutes after PBQ). The number of "writhes" (abdominal contraction, lordosis and hindlimb extension) for each animal was recorded and the group means and standard errors were calculated. The means obtained from drug treated groups were compared with the vehicle control mean values and percent inhibition of writhing was calculated as follows: [formula]

adjuvant arthritis = test: Rat adjuvant arthritis test (adjuvant); type: in vivo; details: for ED50: rat adjuvant arthritis
Source text: c. Rat adjuvant arthritis test (adjuvant)
The test was done in accordance with procedures well-known in the art (see: C. A. Winter, Arthr. Rheum 9, 394-404 (1966).

Row | SMILES | TD50 at 4 h (in vivo) [mg/kg] | ED50 [1] [mg/kg] | protection from bone and cartilage destruction (adjuvant arthritis; at 30 mg/kg) | ED50 (adjuvant arthritis) [mg/kg] | protection from bone and cartilage destruction (adjuvant arthritis; at 10 mg/kg)
1 | CCOC(=O)C1CCn2c1cc(C)c2C(=O)c1cccn1C (centres unmarked) [Prior Art Compound, reference compound] | 10 | 1 | No protection | 30 | 
2 | CCOC(=O)C1CCn2c1cc(C)c2C(=O)c1ccc(SC)n1C (centres unmarked) [RZ = CH3 S, R^4 = C2 H5, ethyl 5-(1-methyl-5-methylthio-2-pyrroyl)-1,2-dihydro-6-methyl-3H-pyrrolo-[1,2-a]pyrrole-1-carboxylate] | 90 | 0.17 |  | 7.5 | Protection
3 | CSc1ccc(C(=O)c2c(C)cc3n2CCC3C(=O)O)n1C (centres unmarked) [RZ = CH3 S, R^4 = H, 5-(1-methyl-5-methylthio-2-pyrroyl)-1,2-dihydro-6-methyl-3H-pyrrolo-[1,2-a]pyrrole-1-carboxylic acid] | 15 |  |  |  | 
4 | Cc1cc2n(c1C(=O)c1ccc(Cl)n1C)CCC2C(=O)O (centres unmarked) [RZ = Cl, R^4 = H, 5-(1-methyl-5-chloro-2-pyrroyl)-1,2-dihydro-6-methyl-3H-pyrrolo[1,2-a]pyrrole-1-carboxylic acid] | 15 | 2.1 |  |  | 
